Results from US12194027B2, “Small molecule inhibitors of GPCR GPR68 and related receptors for treating cancer, glioblastoma, and other indications” (UNIVERSITY OF MARYLAND, BALTIMORE, priority 2019, dated 2025).

Key:
[1] = tested on: A549 lung cancer cells; experiment: A549 clonogenicity (crystal violet); type: cell-based; conditions: 8 days
Procedure: A549 lung cancer cells were plated at 300 cells per well in a 6-well plate and on the next day were treated with increasing concentrations of OGM2 for 8 days. The plate was fixed with formalin and stained with crystal violet. See FIG. 25B for results at the indicated concentrations.

[2] = tested on: U87 glioblastoma cells; experiment: calcium release on acidification in U87 cells (Fluo-8); type: cell-based; conditions: media pH6.4, Fluo-8
Text: GPR68 is known to signal through Gq which results in a calcium flux out of the Endoplasmic reticulum. U87 glioblastoma cells were stained, using a calcium-sensitive vital dye Fluo-8, and stimulated with acidification of the media to pH6.4. The cells respond to the acidification with a burst of calcium release, this is inhibited by OGM2.

[3] = tested on: Spheroids; experiment: pH dependent tumoroid growth; type: cell-based; conditions: pH 6.2 vs pH 8 buffered media, 3 days
Procedure: Spheroids were formed over 3 days using low attachment 96-well round bottom plates and then treated with DMSO or OGM2 in either pH 8 buffered media or pH 6.2 buffered media and grown for 3 days. The size (area) of spheroids was measured in relative area units. […] This increase in growth was abrogated by OGM2.

[4] = tested on: Prostatic Neuroendocrine cancer (PNEC: PC3); experiment: viability (cell titer blue), prostate cancer cells; type: cell-based; conditions: PC3, 72 hours
Procedure: (§1) Multiple studies were conducted as discussed herein, but with different cancer type cohorts. Data was extracted from Gene expression omnibus using ProggeneV2. Briefly, probes were prepared using standard Affymetrix™ protocols, and hybridized to Affymetrix™ HG-U133A and HG-U133B arrays. The cohort was separated by High and low expression of GPR68 by above or below the median expression level. Survival of the cohorts was plotted in FIG. 26A. Survival of multiple cancer types including breast (MDA MB231), glioblastoma (U87), and Prostatic Neuroendocrine cancer (PNEC: PC3) is shown in FIG. 26B. Cells were plated in 96-well plates and then treated with increasing doses OGM2. Seventy-two hours later, survival was assayed with cell titer blue. Each cell line was normalized to DMSO treated control.

[5] = tested on: A549 lung cancer cells; experiment: A549 viability (crystal violet); type: cell-based; conditions: 24 hours
Procedure: A549 lung cancer cells were plated at different concentrations of cell per well in a 96-well plate. On the following day cells were treated with increasing doses of OGM2. Twenty-four hours later cells viability was assayed with crystal violet and normalized to untreated.

[6] = tested on: PANC02 pancreatic cells; experiment: PANC02 scratch migration; type: cell-based; conditions: 10 μM, 24 hours
Procedure: In a second study, PANC02 pancreatic cells plated and grown to confluence. Using a P200 tip, cells were denuded and allowed to migrate for 24 hours in DMSO or 10 μM OGM2 and imaged.

[7] = tested on: breast (MDA MB231); experiment: viability (cell titer blue), breast cancer cells; type: cell-based; conditions: MDA MB231, 72 hours
Procedure: as §1

[8] = target: T1, GPR68 (Homo sapiens (Human), UniProt Q15743); experiment: Chem-1 OGR1/GPR68 recovery assay after inhibitor washout; type: cell-based
Procedure: Chem-1 OGR1/GPR68 cells from Millipore™ (St. Louis, MO) were plated in 96-well format and stained with Fluo-8. Using the Lionheart FX (Biotek™) a baseline for 3 seconds was observed before the medium was acidified using an automated injector to reach pH 6.8. Cells then were dynamically monitored and change in fluorescence was quantified using Gen5 software (Biotek™). Pretreatment of 10 μM OGM2 for 4 hours was used. Each well was only assayed once at the correct time interval after inhibitor removal.
(§2) Chem1-GPR68 reporter cells were treated with 20 uM OM8345 for 2 hours and then rinsed with HBSS. […] The GPR68 inhibitory activity of OGM analogs segregated with the ability of the molecule to induce the phenotype in zebrafish. Neural crest progenitors labeled with In situ hybridization of FoxD3 show normal formation of the progenitor pool.
Additional experiments, OGM2 resynthesized and used (due to its submicromolar potency and GPR68 specificity) were performed. See FIG. 3A (HNMR of resynthesis of OGM2) and FIG. 3B (LCMS of resynthesis of OGM2). To test the possibility of OGM2 being an irreversible inhibitor, Chem1-OGR1 cells (Millipore™) were incubated with 10 μM OGM2 for 4 hours, and after removing the compound stimulated with pH 6.4 medium. […] Time till 50% max ˜52 minutes. The signal returned back towards baseline uninhibited levels in a rapid and time-dependent manner.

[9] = tested on: PANC02 pancreatic cells; experiment: PANC02 clonogenicity (crystal violet); type: cell-based; conditions: 7 days
Procedure: In a third study, PANC02 pancreatic cells were plated at 400 cells per well in a 6-well plate and on the next day were treated with increasing concentrations of OGM2 for 7 days. The plate was fixed with formalin and stained with crystal violet.

[10] = target: T1, GPR68; experiment: GPR68 inhibitory activity of OGM analogs (Table 5); type: cell-based
Procedure: GPCR profiling assays were performed by Millipore (St. Louis, MO) using in cells expressing Gα15, a promiscuous G protein that enhances GPCR coupling to downstream Ca2+ signaling pathways.
Since GPCRs represent >30% of targets for FDA-approved small molecules and are known to modulate cell migration, activity against 158 GPCRs was assessed based on their chemical structures. GPCRs (158) were tested for agonist and antagonist activity at 10 μM. […] Chemical segregation analysis of zebrafish phenotype was conducted to further identify the inhibitory activity responsible for the zebrafish phenotype. […] The identities of the R groups in FIG. 2B are shown below in Table 5.
as §2

[11] = tested on: MeWo melanoma cell line; experiment: scratch assay for migration, MeWo; type: cell-based, human; conditions: OGM 5 μM, EIPA 10 μM, 20 hours
Procedure: (§3) Cells were grown to confluence and the cells were denuded with a P200 tip. A medium change was done to add fresh medium, remove loose cells and add compounds OGM (5 μM) and EIPA (10 μM). The area of the scratch was observed 20 hours later.
(§4) Since there are numerous parallels are found between neural crest cells and cancer during migration, we examined whether OGM could inhibit the migration of cells in human melanoma cell lines (Oppitz et al., 2007; Schriek et al., 2005; Sinnberg et al., 2018). […] A2058, MeWo and WM115 cells were grown to confluence and a stripe of cells were denuded with a p200 pipette tip “scratch” and rinsed with PBS. Cells were treated with OGM or EIPA, or DMSO and incubated in low serum media. Imaging was done at 30 minutes after “scratch” and then 20 hours afterwards. Areas were then measured and normalized to the initial area.
(§5) Previous studies with the MV3 melanoma cell line have shown that disruption of proton efflux with EIPA inhibition of NHE1 can also reduce melanoma motility (Ludwig et al., 2013; Schneider et al., 2009; Stock et al., 2007, 2005; Stüwe et al., 2007). […] Although the expression of GPR68 and other proton-sensing receptors have been characterized in various skin cancers (Merkel cell carcinoma, dermatofibrosarcoma protuberans, atypical fibroxanthoma, and pleomorphic dermal sarcoma), expression in melanoma cell lines has not investigated (Nassios et al., 2019).

[12] = tested on: U87 cells; experiment: U87 viability with temozolomide plus OGM2; type: cell-based; conditions: 0.5 μM or 5 μM OGM2 with increasing TMZ
Procedure: U87 cells were treated with increasing concentrations of temozolomide (TMZ) without OGM2 or with 0.5 μM or 5 μM OGM2.

[13] = tested on: U87 glioblastoma spheroids; experiment: matrix invasion of U87 spheroids in Matrigel, acidified media; type: cell-based
Text: U87 glioblastoma spheroids were formed in low attachment round bottom plates for 3 days. Spheroids were then covered in Matrigel™, which was allowed to polymerize before treatment with acidified media with or without OGM2. Acidification increased the degree of matrix invasion which is attenuated by OGM2.

[14] = tested on: A2058 melanoma cell line; experiment: scratch assay for migration, A2058; type: cell-based, human; conditions: OGM 5 μM, EIPA 10 μM, 20 hours
Procedure: as §3, §4, §5

[15] = tested on: WM115 melanoma cell line; experiment: scratch assay for migration, WM115; type: cell-based, human; conditions: OGM 5 μM, EIPA 10 μM, 20 hours
Procedure: as §3, §4, §5

[16] = target: GPR68/OGR1 (Homo sapiens (Human), UniProt Q15743); experiment: inhibition of GPR68/OGR1 in CHEM1-OGR1 cells, Fluo-8 calcium response to acidified media; type: cell-based; conditions: acidified media pH 6.4, Fluo-8
Procedure: Briefly, the methods were: On the day before the assay 20,000 cells per well of CHEM1-OGR1 cells were plated in 10% DMEM containing 10% FBS and 1% Pen/Strep into a 96 well plate. After 24 hours media was removed and cells were stained with 80 uL Fluo-8 calcium indicator dye according to manufacturer's protocol. After staining cells were treated with 20 uL of 4× concentration of test compounds. Using kinetic imaging in the Lionheart HCS fluorescence intensity was continuously measure at 10 frames per second, for 5 seconds before 100 μL of acidified media was added to the well resulting in a pH of 6.4. A ratio of fluorescence intensities prior to addition and at peak were calculated and averaged. The resulting data were platted and using a 4 parameter logistic regression EC50 for each test compound was determined.

T1 sequence (Q15743 whole entry, looked up): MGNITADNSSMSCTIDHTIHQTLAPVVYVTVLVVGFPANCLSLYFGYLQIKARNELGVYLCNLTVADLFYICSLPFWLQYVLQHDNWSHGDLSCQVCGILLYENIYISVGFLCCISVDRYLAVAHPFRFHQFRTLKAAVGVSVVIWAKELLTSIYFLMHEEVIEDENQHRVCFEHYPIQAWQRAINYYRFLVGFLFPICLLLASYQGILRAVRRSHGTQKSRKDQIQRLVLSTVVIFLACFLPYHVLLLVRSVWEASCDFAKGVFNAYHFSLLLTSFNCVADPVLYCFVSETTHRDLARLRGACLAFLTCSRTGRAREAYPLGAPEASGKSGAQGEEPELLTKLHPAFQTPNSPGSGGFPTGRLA
Chain of GPR68/OGR1 (Q15743 whole entry): as the sequence (Q15743 whole entry, looked up) above

- Time till 50% max (recovery of GPR68 activity) ([8]; after 10 μM for 4 hours, washout, pH 6.4 medium): ~52 min
- IC50 [10]: 0.71 µM
- EC50 [16]: 1.35 µM
Compound: CCc1ccc2c(c1)C1(NN=C(c3ccccc3)S1)C(=O)N2 (centres unmarked) [OGM2]
- clonogenicity [1]: reduced the clonogenicity
- calcium release in response to acidification [2]: inhibited
- increase in spheroid growth at pH 6.2 [3]: abrogated
- viability [4]: Reduces Viability
- toxicity (cell viability) [5]: relatively High doses of OGM2 are necessary for toxicity
- migration [6]: significantly reduced migration
- viability [7]: Reduces Viability
- recovery of GPR68 activity after washout ([8]; 10 μM for 4 hours, then removed): restored rapidly after washout of inhibitor
- clonogenicity [9]: reduced the clonogenicity
- migration in scratch assay [11]: migrated significantly less
- cell viability in combination with temozolomide (TMZ) [12]: synergistic result
- degree of matrix invasion [13]: attenuated
- migration in scratch assay [14]: migrated significantly less
- migration in scratch assay [15]: migrated significantly less
